From ChEMBL document CHEMBL1142222, “A-803467, a potent and selective Nav1.8 sodium channel blocker, attenuates neuropathic and inflammatory pain in the rat” (Proc Natl Acad Sci U S A, 2007)

What was measured:
Rattus norvegicus [1] = assay: Analgesic activity in rat complete Freund's adjuvant-induced thermal hyperalgesia model assessed as paw withdrawal latency at 100 mg/kg, ip after 4 days; assay type: functional; settings: route intraperitoneal
[2] = biological target: Sodium channel protein type 10 subunit alpha (Rattus norvegicus, UniProt Q62968); assay: Inhibition of Nav1.8 channel in rat dorsal root ganglion neurons assessed as blockade of TTX-R current at -100 mV by patch clamp method; assay type: tissue-based
[3] = biological target: Sodium channel protein type 2 subunit alpha (Homo sapiens, UniProt Q99250); assay: Inhibition of human Nav1.2 channel expressed in HEK293 cells at -60 mV by patch clamp method; assay type: cell-based
Rattus norvegicus [4] = assay: Analgesic activity in rat vincristine-induced mechanical allodynic neuropathic pain at 100 mg/kg, ip; assay type: functional; settings: route intraperitoneal
Rattus norvegicus [5] = assay: Analgesic activity in rat complete Freund's adjuvant-induced mechanical hyperalgesia model assessed as paw withdrawal latency at 100 mg/kg, ip after 4 days; assay type: functional; settings: route intraperitoneal
[6] = biological target: 5-hydroxytryptamine receptor 7 (Homo sapiens, UniProt P34969); assay: Displacement of [3H]LSD from 5HT7 receptor
[7] = Volume of distribution in rat; assay type: ADME, organism-based; settings: in vivo, read-out: Vbeta
Rattus norvegicus [8] = assay: Analgesic activity in ip dosed rat cyclophosphamide induced cyctitis model; assay type: functional
[9] = biological target: Muscarinic acetylcholine receptor M1 (Homo sapiens, UniProt P11229); assay: Displacement of [3H]pirezepine from muscarinic M1 receptor
Muscarinic acetylcholine receptor M1, sequence (P11229 whole entry): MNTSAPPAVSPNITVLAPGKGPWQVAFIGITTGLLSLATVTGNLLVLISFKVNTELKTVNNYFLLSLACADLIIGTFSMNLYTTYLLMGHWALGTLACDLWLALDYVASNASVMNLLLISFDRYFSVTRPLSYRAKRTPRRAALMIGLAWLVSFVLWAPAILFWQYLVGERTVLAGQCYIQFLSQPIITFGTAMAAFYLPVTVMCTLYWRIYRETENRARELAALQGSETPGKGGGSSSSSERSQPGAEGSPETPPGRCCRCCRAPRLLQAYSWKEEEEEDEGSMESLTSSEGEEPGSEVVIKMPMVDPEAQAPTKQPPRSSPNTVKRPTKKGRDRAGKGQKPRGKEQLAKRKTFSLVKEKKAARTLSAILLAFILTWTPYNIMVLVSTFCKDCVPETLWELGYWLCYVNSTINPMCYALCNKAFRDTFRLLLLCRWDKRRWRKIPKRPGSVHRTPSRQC

5-hydroxytryptamine receptor 7, sequence (P34969 whole entry): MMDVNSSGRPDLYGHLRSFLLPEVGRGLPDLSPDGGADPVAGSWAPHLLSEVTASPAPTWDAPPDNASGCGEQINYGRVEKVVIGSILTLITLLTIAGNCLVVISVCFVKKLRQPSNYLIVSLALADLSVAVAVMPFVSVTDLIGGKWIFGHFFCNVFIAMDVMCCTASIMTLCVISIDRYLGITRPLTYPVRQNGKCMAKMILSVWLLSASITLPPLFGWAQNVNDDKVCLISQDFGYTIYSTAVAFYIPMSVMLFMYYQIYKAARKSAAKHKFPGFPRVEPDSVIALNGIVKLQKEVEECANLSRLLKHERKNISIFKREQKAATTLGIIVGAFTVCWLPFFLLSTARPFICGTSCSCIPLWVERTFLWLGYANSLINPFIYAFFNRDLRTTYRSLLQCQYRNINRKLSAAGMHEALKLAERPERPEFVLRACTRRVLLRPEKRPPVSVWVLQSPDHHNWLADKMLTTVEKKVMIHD
Sodium channel protein type 10 subunit alpha, sequence (Q62968 whole entry): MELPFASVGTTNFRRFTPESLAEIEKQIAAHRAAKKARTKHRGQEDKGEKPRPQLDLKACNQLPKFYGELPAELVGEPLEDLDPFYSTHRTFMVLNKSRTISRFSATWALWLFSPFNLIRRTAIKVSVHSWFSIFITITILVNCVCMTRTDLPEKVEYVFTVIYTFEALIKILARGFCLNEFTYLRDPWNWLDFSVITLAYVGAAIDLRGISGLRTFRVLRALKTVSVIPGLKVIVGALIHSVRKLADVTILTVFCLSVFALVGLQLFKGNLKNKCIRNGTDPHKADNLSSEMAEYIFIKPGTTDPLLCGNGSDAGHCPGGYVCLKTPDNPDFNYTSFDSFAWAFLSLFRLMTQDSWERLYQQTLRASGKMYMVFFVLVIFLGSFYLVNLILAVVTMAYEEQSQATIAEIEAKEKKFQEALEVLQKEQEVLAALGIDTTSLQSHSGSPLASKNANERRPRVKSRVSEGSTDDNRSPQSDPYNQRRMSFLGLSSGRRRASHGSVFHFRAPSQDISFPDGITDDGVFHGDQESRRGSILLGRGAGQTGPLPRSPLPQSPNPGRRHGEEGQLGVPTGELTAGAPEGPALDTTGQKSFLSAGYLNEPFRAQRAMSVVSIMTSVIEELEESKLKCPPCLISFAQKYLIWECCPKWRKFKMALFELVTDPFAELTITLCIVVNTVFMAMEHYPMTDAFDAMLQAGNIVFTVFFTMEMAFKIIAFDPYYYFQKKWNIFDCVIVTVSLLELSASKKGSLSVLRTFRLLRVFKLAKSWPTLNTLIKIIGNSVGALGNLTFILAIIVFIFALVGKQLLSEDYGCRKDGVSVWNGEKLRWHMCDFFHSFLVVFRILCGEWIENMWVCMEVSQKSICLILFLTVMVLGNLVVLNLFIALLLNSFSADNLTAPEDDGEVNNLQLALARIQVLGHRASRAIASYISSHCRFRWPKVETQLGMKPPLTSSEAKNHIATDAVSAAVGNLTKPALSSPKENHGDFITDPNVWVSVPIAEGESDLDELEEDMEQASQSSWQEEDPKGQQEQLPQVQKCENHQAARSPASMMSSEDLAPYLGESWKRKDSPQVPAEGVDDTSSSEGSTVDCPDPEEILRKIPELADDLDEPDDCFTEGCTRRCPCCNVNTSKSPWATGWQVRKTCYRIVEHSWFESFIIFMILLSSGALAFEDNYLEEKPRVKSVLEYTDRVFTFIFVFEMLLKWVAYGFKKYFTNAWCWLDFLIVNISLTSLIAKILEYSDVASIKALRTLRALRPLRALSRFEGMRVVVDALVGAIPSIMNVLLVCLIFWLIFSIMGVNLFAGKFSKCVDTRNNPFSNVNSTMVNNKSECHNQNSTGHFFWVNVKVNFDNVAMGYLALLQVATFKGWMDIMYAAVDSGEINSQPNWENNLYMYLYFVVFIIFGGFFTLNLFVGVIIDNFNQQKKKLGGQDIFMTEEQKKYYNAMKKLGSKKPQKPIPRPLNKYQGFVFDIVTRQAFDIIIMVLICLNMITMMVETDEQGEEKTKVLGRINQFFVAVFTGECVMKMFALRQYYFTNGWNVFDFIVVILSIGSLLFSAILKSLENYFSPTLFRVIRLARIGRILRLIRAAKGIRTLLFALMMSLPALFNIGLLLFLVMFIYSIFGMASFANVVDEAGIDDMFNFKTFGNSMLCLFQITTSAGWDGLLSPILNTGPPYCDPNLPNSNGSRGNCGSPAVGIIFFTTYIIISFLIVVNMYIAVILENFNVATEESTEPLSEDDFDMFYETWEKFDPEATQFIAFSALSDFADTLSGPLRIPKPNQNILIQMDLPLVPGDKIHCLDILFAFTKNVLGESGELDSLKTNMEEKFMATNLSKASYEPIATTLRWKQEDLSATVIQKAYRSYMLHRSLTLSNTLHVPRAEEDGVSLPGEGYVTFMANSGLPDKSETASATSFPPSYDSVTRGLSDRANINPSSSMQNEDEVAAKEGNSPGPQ
Sodium channel protein type 2 subunit alpha, sequence (Q99250 whole entry): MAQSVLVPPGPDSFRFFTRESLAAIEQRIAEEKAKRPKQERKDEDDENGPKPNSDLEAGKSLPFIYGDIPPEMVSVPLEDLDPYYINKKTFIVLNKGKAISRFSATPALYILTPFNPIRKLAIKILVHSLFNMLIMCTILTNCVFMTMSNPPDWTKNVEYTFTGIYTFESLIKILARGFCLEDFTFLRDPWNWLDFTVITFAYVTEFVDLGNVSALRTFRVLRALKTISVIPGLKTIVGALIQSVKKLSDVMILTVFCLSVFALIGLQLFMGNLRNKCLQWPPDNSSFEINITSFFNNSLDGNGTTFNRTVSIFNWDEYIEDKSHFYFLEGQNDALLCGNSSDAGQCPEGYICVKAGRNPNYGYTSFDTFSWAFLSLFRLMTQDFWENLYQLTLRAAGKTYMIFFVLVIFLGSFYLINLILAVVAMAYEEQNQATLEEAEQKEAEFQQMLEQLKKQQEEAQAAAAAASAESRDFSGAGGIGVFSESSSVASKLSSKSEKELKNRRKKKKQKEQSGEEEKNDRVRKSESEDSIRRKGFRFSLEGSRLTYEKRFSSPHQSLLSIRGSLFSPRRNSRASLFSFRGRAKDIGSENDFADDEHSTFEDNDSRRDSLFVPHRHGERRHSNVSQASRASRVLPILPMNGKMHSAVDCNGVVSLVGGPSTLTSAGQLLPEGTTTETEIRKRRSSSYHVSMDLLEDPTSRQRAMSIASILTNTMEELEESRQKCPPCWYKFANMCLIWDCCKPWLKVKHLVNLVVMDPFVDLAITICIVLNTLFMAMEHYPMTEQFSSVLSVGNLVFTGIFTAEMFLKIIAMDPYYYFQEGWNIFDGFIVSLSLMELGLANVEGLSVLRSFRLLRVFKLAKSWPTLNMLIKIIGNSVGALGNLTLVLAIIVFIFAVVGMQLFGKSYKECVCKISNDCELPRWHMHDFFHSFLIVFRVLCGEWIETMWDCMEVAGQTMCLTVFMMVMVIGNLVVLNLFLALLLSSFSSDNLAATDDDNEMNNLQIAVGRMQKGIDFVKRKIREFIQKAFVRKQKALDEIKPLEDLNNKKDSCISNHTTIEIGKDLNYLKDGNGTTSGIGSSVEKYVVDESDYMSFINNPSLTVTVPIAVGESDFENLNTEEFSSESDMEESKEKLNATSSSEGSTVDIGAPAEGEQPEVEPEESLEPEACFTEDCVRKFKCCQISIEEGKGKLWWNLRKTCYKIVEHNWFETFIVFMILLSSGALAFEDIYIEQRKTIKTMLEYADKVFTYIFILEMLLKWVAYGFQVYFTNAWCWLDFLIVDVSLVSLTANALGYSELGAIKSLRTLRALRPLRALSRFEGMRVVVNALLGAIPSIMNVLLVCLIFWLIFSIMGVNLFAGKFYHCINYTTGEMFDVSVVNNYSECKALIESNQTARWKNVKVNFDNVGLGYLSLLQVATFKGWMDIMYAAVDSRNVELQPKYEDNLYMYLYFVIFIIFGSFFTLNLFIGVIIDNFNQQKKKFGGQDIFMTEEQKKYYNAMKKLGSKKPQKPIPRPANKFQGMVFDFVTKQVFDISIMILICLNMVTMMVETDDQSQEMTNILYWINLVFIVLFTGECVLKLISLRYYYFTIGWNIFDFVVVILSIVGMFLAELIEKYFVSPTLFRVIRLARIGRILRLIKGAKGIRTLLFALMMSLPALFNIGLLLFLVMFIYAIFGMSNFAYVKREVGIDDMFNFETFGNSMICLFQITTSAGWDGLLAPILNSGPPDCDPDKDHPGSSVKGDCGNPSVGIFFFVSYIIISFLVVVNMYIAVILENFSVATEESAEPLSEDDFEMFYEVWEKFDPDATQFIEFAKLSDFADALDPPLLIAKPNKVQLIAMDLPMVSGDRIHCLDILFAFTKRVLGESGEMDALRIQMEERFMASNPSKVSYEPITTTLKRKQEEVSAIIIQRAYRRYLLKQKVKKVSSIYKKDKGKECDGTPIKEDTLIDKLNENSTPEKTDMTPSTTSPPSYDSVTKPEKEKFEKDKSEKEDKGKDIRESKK

## COc1cc(NC(=O)c2ccc(-c3ccc(Cl)cc3)o2)cc(OC)c1
Rattus norvegicus [1]
  Activity: 71%
[2]
  IC50: 1 µM
[3]
  IC50: 7.38 µM
Rattus norvegicus [4]
  Activity: 9%
Rattus norvegicus [5]
  Activity: 42%
[6]
  IC50: > 10 µM
[7]
  Vd: 11.5 L/kg
Rattus norvegicus [8]
  ED50: > 100 mg/kg
[9]
  IC50: > 10 µM
